{"source": "patent US6759212B1", "about": "“Cell cycle-regulating proteins” (Chugai Seiyaku Kabushiki Kaisha, priority 1997, dated 2004)", "key": {"NRK-49F cells": {"test_system": "NRK-49F cells", "assay": "Abnormal cytokinesis: cells having two or more nuclei after transient transfection", "format": "cell-based, rat", "conditions": "72 hours after transfection", "description": "(§1) To confirm the generality of this observation, AIM-1 (WT) and AIM-1 (K-R) plasmids were transiently expressed in NRK-49F cells and human diploid fibroblast KD cells and the results were compared with those obtained in a control transfected with vector alone. These constructs were transfected into cell-s with a reporter construct […] to prepare β-galactosidase-expressing plasmids for use as a positive internal control for transfection (Table 1).\n(§2) (2) Abnormal Cytokinesis in Cells Expressing AIM-1 (K-R) Plasmid FLAG-AIM-1 (WT), FLAG-AIM-1 (K-R) or a control plasmid pEF/hygI was cotransfected with a reporter construct RSV-β-galactosidase at a ratio of 10:1 into NRK-49F cells and human diploid fibroblast KD cells (a kind gift of late Dr. Takeo Kakunaga) by Lipofectin method. After 24 hours, 1×10^3 cells were seeded per 60 mm dish, and 72 hours after transfection, cells were fixed in 1.25% glutaraldehyde/PBS and stained by a method described in literature (Shu et al., J.C.S. 108:2955-62, 1995) to observe expression of β-galactosidase. MvlLu cells were also tested under the conditions described in (1) B above.\n(§3) 1. The figures in the table mean the percentage of cells having two or more nuclei to β-galactosidase positive cells for NRK-49F cells and KD cells or the percentage of cells having two or more nuclei to the total number of cells for MvlLu cells. […]"}, "[1]": {"test_system": "human diploid fibroblast KD cells", "assay": "Abnormal cytokinesis: cells having two or more nuclei after transient transfection", "format": "cell-based", "conditions": "72 hours after transfection", "description": "as §1, §2, §3"}, "Mv1Lu cells [2]": {"test_system": "Mv1Lu cells", "assay": "Abnormal cytokinesis: cells having two or more nuclei, tetracycline-inducible expression, Giemsa staining", "format": "cell-based, mink", "conditions": "Mv1Lu, 72 hours", "protocol": "(§4) MvlLu cells carrying vector alone, wild-type FLAG-AIM-1 (WT) or FLAG-AIM-1 (K-R) were grown in the presence or absence of doxycycline (tetracycline analog) for 24 hours and then subjected to western blot with anti-FLAG antibody (FIG. 4A). […] In addition, the size of these cells was much larger than normal cells (FIGS. 4Bf and 5D). In these abnormal cells, however, spindle. functions including chromosome disjunction and late anaphase spindle elongation as well as nuclear division appeared unaffected (data not shown). This was further confirmed by flow cytometry (FACS) (FIG. 4C). […] Namely, apocytes appeared because karyokinesis advances but cytokinesis is inhibited.\nThen, asynchronous cells transfected with vector alone (a, d), FLAG-AIM-1 (WT) (b, e) or FLAG-AIM-1 (K-R) (c, f) were grown with (a-c) or without (d-f) DOX for 72 hours and stained with Giemsa's solution. Results are shown in FIG. 4B, wherein upper panels are called as a, b and c from left to right, and lower panels are called as d, e and f from left to right.\n(2) Abnormal Cytokinesis in Cells Expressing AIM-1 (K-R) Plasmid FLAG-AIM-1 (WT), FLAG-AIM-1 (K-R) or a control plasmid pEF/hygI was cotransfected with a reporter construct RSV-β-galactosidase at a ratio of 10:1 into NRK-49F cells and human diploid fibroblast KD cells (a kind gift of late Dr. Takeo Kakunaga) by Lipofectin method. […]"}, "Mv1Lu cells [3]": {"test_system": "Mv1Lu cells", "assay": "FACS analysis of DNA content (propidium iodide)", "format": "cell-based, mink", "conditions": "72 hour-induction", "protocol": "as §4\nCell samples were harvested and fixed with ethanol, stained with propidium iodide for FACS analysis."}, "Mv1Lu cells [4]": {"test_system": "Mv1Lu cells", "assay": "Growth for 2 weeks with or without DOX, Giemsa staining", "format": "cell-based, mink", "conditions": "grown 2 weeks with or without doxycycline", "protocol": "The nuclei of these AIM-1 (K-R)-expressing cells divided 3 to 4 times during 4 to 5 days, resulting in more than 10 nuclei per cell (FIG. 5D).\nMv1Lu cells transfected with FLAG-AIM-1 (WT) or FLAG-AIM-1 (K-R) were grown with or without DOX for 2 weeks and stained with Giemsa's solution."}}, "data": [{"substance": "AIM-1 (WT): wild-type rat AIM-1 protein kinase labeled with FLAG at the N-terminus, expressed from plasmid pUHD10-3 or pEF/hygI", "values": [{"measurement": "percentage of cells having two or more nuclei to β-galactosidase positive cells", "setting": "NRK-49F cells", "result": 7.8, "unit": "%"}, {"measurement": "percentage of cells having two or more nuclei to β-galactosidase positive cells", "setting": "[1]", "result": 4.8, "unit": "%"}, {"measurement": "percentage of cells having two or more nuclei to the total number of cells", "setting": "Mv1Lu cells [2]; DOX(+) (not induced)", "result": 0.9, "unit": "%"}, {"measurement": "percentage of cells having two or more nuclei to the total number of cells", "setting": "Mv1Lu cells [2]; DOX(−) (induced)", "result": 2.8, "unit": "%"}, {"measurement": "cell population with 4N or 8N DNA / cell cycle pattern (FACS)", "setting": "Mv1Lu cells [3]", "result": "normal cell cycle pattern"}, {"measurement": "effect on growth potency (mitotic inhibition)", "setting": "Mv1Lu cells [4]", "result": "not"}]}]}
